Experimental data: publication PMC13600255 (Journal of the American Chemical Society, 2025)
Entries after “also recorded” stand apart in the source; their conditions may differ. Where two headings read alike, the source gives them in different places.

Key:
[1] = molecular target: SERT (Rattus norvegicus, UniProt P31652); assay: [3H]5-HT release from rat brain synaptosomes via SERT; assay type: biochemical; conditions: for Emax: read-out: [3H]5-HT Release % Emax via SERT
[2] = molecular target: VMAT2 (Rattus norvegicus, UniProt Q01827); assay: [3H]5-HT release from rat brain synaptic vesicles via VMAT2; assay type: biochemical; conditions: for Concentration at which [3H]5-HT release exceeds Emax of 30%: rat brain synaptic vesicles; for [3H]5-HT Release % Emax via VMAT2: rat brain vesicular fraction, 5-HT control set as Emax = 100%; for Emax: read-out: [3H]5-HT Release % Emax via VMAT2
[3] = molecular target: rat SERT (rSERT) (Rattus norvegicus, UniProt P31652); assay: [3H]5-HT uptake inhibition in rat brain synaptosomes; assay type: biochemical; conditions: for IC50: rat brain synaptosomes
[4] = molecular target: rat VMAT2 (rVMAT2) (Rattus norvegicus, UniProt Q01827); assay: [3H]5-HT uptake inhibition in rat brain synaptic vesicular fraction; assay type: biochemical
[5] = molecular target: hVMAT2 (Homo sapiens, UniProt Q05940); assay: FFN206 fluorescent substrate uptake inhibition in hVMAT2-HEK cells; assay type: cell-based
[6] = molecular target: hSERT (Homo sapiens, UniProt P31645); assay type: cell-based; conditions: for IC50: read-out: IC50, hSERT (uptake inhibition, APP+), hSERT-HEK cells, fluorescent substrate APP+, n = 4
[7] = molecular target: T1, hOCT2 (Homo sapiens, UniProt O15244); assay: ASP+ fluorescent substrate uptake inhibition at OCT2; assay type: cell-based
T1 sequence (O15244 1-555): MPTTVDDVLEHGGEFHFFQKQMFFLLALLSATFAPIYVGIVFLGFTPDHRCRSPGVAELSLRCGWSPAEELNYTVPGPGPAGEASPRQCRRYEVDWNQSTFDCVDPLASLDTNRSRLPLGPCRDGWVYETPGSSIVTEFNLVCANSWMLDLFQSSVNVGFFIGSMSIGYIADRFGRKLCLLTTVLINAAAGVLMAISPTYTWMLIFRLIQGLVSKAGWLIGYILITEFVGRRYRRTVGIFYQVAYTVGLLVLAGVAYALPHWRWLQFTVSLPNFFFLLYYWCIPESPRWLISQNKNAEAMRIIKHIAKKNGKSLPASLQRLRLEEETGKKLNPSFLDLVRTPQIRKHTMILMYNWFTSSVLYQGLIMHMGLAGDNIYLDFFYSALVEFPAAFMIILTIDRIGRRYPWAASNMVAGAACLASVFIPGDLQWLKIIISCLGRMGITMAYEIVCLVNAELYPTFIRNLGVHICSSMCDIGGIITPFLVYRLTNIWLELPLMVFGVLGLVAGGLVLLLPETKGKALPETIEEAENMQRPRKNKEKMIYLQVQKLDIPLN

[8] = test system: NET; conditions: read-out: EC50, NET (release); synaptosomes; cited from earlier work
[9] = Pharmacokinetics in mice, estimated free drug concentration in brain; assay type: in vivo, mouse; conditions: mice, 50 mg/kg, s.c.
[10] = test system: mice; assay: Open field locomotor activity test in mice; assay type: in vivo, mouse; conditions: s.c.; for Locomotor activity / sedation in open field test: dose-response
[11] = test system: mice; assay: Catalepsy bar test in mice; assay type: in vivo, mouse
[12] = test system: humans; conditions: therapeutic doses, treated for dyskinesias; cited from earlier work
[13] = molecular target: mouse VMAT2 (mVMAT2) (Mus musculus, UniProt Q8BRU6); assay: FFN200 two-photon imaging of VMAT2 function in acute mouse brain slices; assay type: cell-based; conditions: 2 μM for 30 minutes, FFN200 10 μM, dorsal striatum
[14] = molecular target: SERT (Mus musculus, UniProt Q60857); assay: SERTlight two-photon imaging of SERT function in acute mouse brain slices; assay type: cell-based
[15] = rat brain synaptosomes, n = 3, active releaser: EC50 < 10 μM and Emax > 30%
[16] = read-out: Uptake Inhibition at SERT IC50, [3H]5-HT (rSERT)
[17] = read-out: [3H]5-HT Uptake Inhibition IC50 ± SD, SERT, n = 3
[18] = read-out: Uptake Inhibition at VMAT2 IC50, [3H]5-HT (rVMAT2), rat brain synaptic vesicles
[19] = read-out: IC50, hVMAT2 (uptake inhibition, FFN206), hVMAT2-HEK cells, fluorescent substrate FFN206, n = 4
[20] = read-out: [3H]5-HT Release EC50 ± SD via VMAT2

Chain of rat SERT (rSERT) (P31652 whole entry): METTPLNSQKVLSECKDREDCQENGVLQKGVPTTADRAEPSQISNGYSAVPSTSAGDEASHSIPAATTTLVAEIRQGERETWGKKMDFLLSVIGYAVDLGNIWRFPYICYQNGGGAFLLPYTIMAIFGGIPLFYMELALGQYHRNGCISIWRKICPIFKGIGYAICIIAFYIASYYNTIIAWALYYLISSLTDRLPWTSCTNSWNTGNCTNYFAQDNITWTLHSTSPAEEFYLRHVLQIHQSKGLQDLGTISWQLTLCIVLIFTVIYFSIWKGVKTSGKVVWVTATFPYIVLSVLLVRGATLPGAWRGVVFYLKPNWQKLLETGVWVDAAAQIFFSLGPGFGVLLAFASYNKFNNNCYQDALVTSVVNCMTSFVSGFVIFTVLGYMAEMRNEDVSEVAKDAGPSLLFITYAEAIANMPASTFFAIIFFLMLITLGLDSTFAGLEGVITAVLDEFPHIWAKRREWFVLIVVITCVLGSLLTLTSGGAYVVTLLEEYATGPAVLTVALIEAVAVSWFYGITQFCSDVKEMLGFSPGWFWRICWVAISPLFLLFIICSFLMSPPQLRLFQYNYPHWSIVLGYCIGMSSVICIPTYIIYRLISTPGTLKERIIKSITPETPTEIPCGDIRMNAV
Chain of SERT (Rattus norvegicus, UniProt P31652) (P31652 whole entry): as above
Chain of hSERT (P31645 whole entry): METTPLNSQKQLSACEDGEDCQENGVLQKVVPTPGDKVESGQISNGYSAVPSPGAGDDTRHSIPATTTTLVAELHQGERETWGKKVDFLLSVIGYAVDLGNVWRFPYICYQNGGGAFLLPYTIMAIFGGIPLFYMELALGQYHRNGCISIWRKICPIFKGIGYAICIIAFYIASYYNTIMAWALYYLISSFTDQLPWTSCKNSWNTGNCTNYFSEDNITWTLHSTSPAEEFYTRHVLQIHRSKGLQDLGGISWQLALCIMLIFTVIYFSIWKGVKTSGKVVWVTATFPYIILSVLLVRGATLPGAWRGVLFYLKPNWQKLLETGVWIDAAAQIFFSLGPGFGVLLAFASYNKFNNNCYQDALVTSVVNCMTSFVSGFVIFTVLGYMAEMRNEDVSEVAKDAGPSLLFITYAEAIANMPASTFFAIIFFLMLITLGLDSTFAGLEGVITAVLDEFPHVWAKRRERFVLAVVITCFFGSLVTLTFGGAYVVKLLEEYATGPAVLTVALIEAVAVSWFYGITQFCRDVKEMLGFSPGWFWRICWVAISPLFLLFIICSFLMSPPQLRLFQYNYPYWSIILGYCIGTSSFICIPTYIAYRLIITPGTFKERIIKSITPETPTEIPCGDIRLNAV
Chain of hVMAT2 (Q05940 whole entry): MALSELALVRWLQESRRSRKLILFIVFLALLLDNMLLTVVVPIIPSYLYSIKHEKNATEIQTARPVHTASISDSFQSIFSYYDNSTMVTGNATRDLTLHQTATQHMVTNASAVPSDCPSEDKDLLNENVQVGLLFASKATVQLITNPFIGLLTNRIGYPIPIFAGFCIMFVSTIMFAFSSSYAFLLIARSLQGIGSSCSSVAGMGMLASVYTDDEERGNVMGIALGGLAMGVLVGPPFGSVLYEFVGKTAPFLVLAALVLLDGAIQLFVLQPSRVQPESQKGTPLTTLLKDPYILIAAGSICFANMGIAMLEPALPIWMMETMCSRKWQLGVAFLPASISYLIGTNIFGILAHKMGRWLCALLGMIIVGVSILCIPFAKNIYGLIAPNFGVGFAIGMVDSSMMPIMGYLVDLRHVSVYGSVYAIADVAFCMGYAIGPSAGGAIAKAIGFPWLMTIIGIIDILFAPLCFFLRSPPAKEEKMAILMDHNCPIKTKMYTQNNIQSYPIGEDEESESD
Chain of mouse VMAT2 (mVMAT2) (Q8BRU6 whole entry): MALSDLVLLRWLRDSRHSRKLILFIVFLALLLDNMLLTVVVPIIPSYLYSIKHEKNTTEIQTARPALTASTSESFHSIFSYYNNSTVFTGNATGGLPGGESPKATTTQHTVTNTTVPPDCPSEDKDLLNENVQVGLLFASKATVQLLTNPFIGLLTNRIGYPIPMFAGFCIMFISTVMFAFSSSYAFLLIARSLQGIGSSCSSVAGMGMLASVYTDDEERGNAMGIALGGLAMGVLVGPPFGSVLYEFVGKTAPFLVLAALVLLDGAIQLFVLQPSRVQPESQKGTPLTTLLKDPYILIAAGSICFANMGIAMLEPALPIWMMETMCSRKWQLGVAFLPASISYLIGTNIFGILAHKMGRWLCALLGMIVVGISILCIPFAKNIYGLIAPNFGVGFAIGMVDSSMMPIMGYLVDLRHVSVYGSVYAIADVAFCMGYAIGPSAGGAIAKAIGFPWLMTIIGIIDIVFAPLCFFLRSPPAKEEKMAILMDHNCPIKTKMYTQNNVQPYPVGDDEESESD
Chain of SERT (Mus musculus, UniProt Q60857) (Q60857 whole entry): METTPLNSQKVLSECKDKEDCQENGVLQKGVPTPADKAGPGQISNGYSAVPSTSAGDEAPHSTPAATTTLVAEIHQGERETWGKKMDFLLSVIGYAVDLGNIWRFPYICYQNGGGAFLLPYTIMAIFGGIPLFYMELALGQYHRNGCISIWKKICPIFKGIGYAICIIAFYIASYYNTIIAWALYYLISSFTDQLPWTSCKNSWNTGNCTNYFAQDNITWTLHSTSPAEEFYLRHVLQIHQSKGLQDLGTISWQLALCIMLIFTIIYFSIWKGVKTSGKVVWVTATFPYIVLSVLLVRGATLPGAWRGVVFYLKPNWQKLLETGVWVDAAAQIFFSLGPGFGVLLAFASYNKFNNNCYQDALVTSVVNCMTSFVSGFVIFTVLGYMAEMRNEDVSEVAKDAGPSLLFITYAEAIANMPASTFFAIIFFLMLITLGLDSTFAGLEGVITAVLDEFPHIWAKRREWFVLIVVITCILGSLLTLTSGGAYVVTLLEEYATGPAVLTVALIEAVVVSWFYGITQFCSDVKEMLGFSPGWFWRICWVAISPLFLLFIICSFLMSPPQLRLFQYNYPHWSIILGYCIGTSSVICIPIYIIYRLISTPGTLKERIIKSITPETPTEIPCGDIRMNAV
Chain of rat VMAT2 (rVMAT2) (Q01827 whole entry): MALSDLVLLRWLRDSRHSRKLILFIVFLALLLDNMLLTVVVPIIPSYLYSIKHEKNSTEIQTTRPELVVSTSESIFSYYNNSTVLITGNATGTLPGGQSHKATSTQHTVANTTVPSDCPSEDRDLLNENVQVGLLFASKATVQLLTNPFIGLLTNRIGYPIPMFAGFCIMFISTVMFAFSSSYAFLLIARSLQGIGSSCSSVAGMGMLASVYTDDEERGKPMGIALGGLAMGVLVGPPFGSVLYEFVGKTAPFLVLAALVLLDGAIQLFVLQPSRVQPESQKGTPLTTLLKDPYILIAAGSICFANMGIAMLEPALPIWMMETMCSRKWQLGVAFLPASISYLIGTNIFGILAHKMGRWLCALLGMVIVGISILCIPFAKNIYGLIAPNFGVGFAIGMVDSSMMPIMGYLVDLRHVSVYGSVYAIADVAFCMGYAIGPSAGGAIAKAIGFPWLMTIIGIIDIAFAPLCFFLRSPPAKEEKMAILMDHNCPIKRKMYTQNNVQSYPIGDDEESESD
Chain of VMAT2 (Q01827 whole entry): as above

## N-methyl-5-cyano-ibogamine
[1]; rat brain synaptosomes, n = 3
  [3H]5-HT Release % Emax via SERT: < 30%
[1]; [15]
  [3H]5-HT Release EC50 ± SD via SERT: inactive
[2]
  Concentration at which [3H]5-HT release exceeds Emax of 30%: > 10 µM
  [3H]5-HT Release % Emax via VMAT2: < 30%
[3]; [16]
  IC50: 10 nM
[3]; [17]
  IC50: 9.8 ± 0.8 nM
[4]; [18]
  IC50: 1320 nM
[5]; [19]
  IC50: 440 nM
[6]
  IC50: 5 nM

## CC[C@H]1C[C@@H]2C[C@H]3c4c(c5cc(OC)ccc5n4C)CCN(C2)[C@@H]13 [N-methyl-ibogaine]
[7]; read-out: IC50, hOCT2, ASP+ fluorescent substrate
  IC50: 2300 nM

## CCOc1ccc2[nH]c3c(c2c1)CCN1CC2CC(CC)C1C3C2 (stereo not shown) [5-ethoxyibogamine]
[5]; ratio of IC50 values, cell-based fluorometry
  Selectivity hVMAT2 over hSERT: more than 100 fold
[5]; [19]
  IC50: 80 nM
[6]
  IC50: 9030 nM

## CC[C@H]1C[C@@H]2C[C@H]3c4[nH]c5ccccc5c4CCN(C2)[C@@H]13 [ibogamine]
[1]
  [3H]5-HT Release EC50 ± SD via SERT: inactive
  Emax: < 30%
[1]; rat brain synaptosomes
  [3H]5-HT release from preloaded synaptosomes (qualitative): No [^3H]5-HT release was observed
[2]
  [3H]5-HT Release EC50 ± SD via VMAT2: inactive
  Concentration at which [3H]5-HT release exceeds Emax of 30%: > 10 µM
  Emax: < 30%
[3]; Uptake Inhibition at SERT IC50, [3H]5-HT (rSERT)
  IC50: 554 nM
[3]; [3H]5-HT Uptake Inhibition IC50 ± SD, SERT, n = 3
  IC50: 554 ± 49 nM
[4]
  IC50: > 10000 nM
[5]
  IC50: 3010 nM
[7]
  IC50: 2000 nM

## CN(C)CCCN1c2ccccc2CCc2ccccc21 [imipramine, reference compound]
[6]
  Selectivity for SERT over VMAT2: > 100 fold

## COC(=O)[C@H]1[C@H]2C[C@@H]3c4[nH]c5cc(OC)ccc5c4CCN3C[C@H]2C[C@@H](OC(=O)c2cc(OC)c(OC)c(OC)c2)[C@@H]1OC [reserpine, reference compound]
[2]
  Emax: < 30%

## CCC1CC2CC3c4oc5ccc(O)cc5c4CCN(C2)C13 (stereo not shown) [oxa-noribogaine]
[5]; [19]
  IC50: 670 nM
[6]
  IC50: 900 nM

## CCC1CC2CC3c4c(c5cc(O)ccc5n4C)CCN(C2)C13 (stereo not shown) [N-methyl-noribogaine]
[1]; rat brain synaptosomes, n = 3
  [3H]5-HT Release % Emax via SERT: < 30%
[1]; [15]
  [3H]5-HT Release EC50 ± SD via SERT: inactive
[2]
  [3H]5-HT Release % Emax via VMAT2: 32%
[2]; [20]
  EC50: 219 ± 36 nM
[3]; [16]
  IC50: 14 nM
[3]; [17]
  IC50: 13.6 ± 1.2 nM
[4]; [18]
  IC50: 239 nM
[5]; [19]
  IC50: 170 nM
[6]
  IC50: 59 nM

## NCCc1c[nH]c2ccc(O)cc12 [serotonin (5-HT), serotonin, reference compound]
[2]
  EC50: 585 ± 129 nM
  Emax: 113%

## CC(N)Cc1ccccc1 (stereo not shown) [amphetamine, reference compound]
[1]; rat brain synaptosomes
  [3H]5-HT release from preloaded synaptosomes (qualitative): robust [^3H]5-HT release
[1]
  Emax: 91%
[2]
  Emax: 98%

## CCC1CC2CC3c4c(c5cc(O)ccc5n4CC)CCN(C2)C13 (stereo not shown) [N-ethyl-noribogaine]
[1]; rat brain synaptosomes, n = 3
  [3H]5-HT Release % Emax via SERT: < 30%
[1]; [15]
  [3H]5-HT Release EC50 ± SD via SERT: inactive
[2]
  [3H]5-HT Release % Emax via VMAT2: 31%
[2]; [20]
  EC50: 711 ± 254 nM
[3]
  Potency in synaptosomes ([3H]5-HT, rSERT) relative to transfected cells (hSERT): more than 20 fold
[3]; [16]
  IC50: 80 nM
[3]; [17]
  IC50: 80.1 ± 7.2 nM
[4]; [18]
  IC50: 54 nM
[5]; [19]
  IC50: 70 nM
[6]
  IC50: 1860 nM
[9]
  Cmax, estimated free drug in the brain: 11 µM
[10]; 30 mg/kg
  Locomotion in open field test: completely suppressed locomotion
[10]
  Locomotor activity / sedation in open field test: suppresses locomotor activity
[11]; mice, 50 mg/kg, s.c., 60-minute mark
  Catalepsy in bar test: catalepsy was induced
[11]; mice, s.c., dose-response
  Catalepsy in bar test: induces catalepsy
[11]; mouse, in vivo
  Catalepsy in bar test: lack of catalepsy; also recorded: did not induce catalepsy

## COc1cc2c(cc1OC)C1CC(=O)C(CC(C)C)CN1CC2 (stereo not shown) [tetrabenazine (TBZ), tetrabenazine, reference compound]
[2]
  Emax: < 30%
[12]
  Parkinsonism as an adverse effect, share of subjects: 15–24%
[10]
  Locomotor activity / sedation in open field test: diminished locomotor activity; also recorded: sedation in the open field test
[11]; mice, s.c., dose-response
  Catalepsy in bar test: catalepsy in the bar test in a dose-dependent manner; also recorded: catalepsy can be readily induced

## COc1cc2c(cc1OC)[C@H]1C[C@@H](O)[C@H](CC(C)C)CN1CC2 [DTBZ, dihydrotetrabenazine, reference compound]
[13]
  Effect on FFN200 uptake / punctate labeling: attenuated; also recorded: inhibited the labeling pattern

## CC[C@H]1C[C@@H]2C[C@H]3c4[nH]c5ccc(C#N)cc5c4CCN(C2)[C@@H]13 [5-cyano-ibogamine]
[1]; rat brain synaptosomes, n = 3
  [3H]5-HT Release % Emax via SERT: < 30%
[1]; [15]
  [3H]5-HT Release EC50 ± SD via SERT: inactive
[2]
  Concentration at which [3H]5-HT release exceeds Emax of 30%: > 10 µM
  [3H]5-HT Release % Emax via VMAT2: < 30%
[13]
  Effect on FFN200 uptake / punctate labeling: no inhibitory effects; also recorded: had no effect on labeling pattern
[3]; [16]
  IC50: 65 nM
[3]; [17]
  IC50: 65.2 ± 5.4 nM
[14]; 0.2 μM (200 nM), dorsal striatum
  Effect on SERTlight labeling of 5-HT axons: Marked labeling inhibition; also recorded: marked suppression of SERTlight fluorescent labeling
[14]; 2 μM for 30 minutes, SERTlight 10 μM, SNpr, DS, SSp2/3
  Effect on SERTlight labeling of 5-HT axons: ablated SERTlight probe uptake; also recorded: fully inhibited SERTlight label
[4]; [18]
  IC50: 9620 nM
[5]; [19]
  IC50: 3340 nM
[6]
  IC50: 26 nM
